From patent publication US9420813B2, “Sweetener” (AJINOMOTO CO., INC., priority 2007, dated 2016) come the findings set out here.

*1 amine or outer side, *2 acyl side, *3 side chain or, on linkers, in order; H or OH if unused. Where no end group is shown, it is not given here. [ ]: non-standard residue; d: D form. γGlu = O=C(O)[C@H](CCC(=O)[*:2])N[*:1]

The test in a line: Quantitative sensory evaluation, body taste and bitterness in drinkable yogurt containing high intensity sweetener (Example 5). On the set-up: species or system human. The settings on record: for Bitterness: control 0, <0 improved; for Bitterness / Body taste: n=12; for Body taste: control 0, >0 improved; for improvement of the body taste (conclusion in words): drinkable yogurt with APM, Table 20. Here is the method:
The quantitative sensory evaluation test was performed as follows. As for a drinkable yogurt standard solution, the following compounds were used. The following standard solutions have been adjusted so they each have almost the same degree of sweetness.
To a drinkable yogurt containing each of the sweeteners, γ-Glu-Val-Gly or cinacalcet was added and mixed at concentrations 0.0001 to 1 g/dl, and then each degree of the improvement of the body taste and the improvement of the bitterness on the sweet taste was measured.
When a mixture is more acidic than the standard control solution, the pH of the sample was adjusted with NaOH to achieve a range of pH±0.2 with respect to the pH of the standard solution before use.
The sensory evaluation for the improvement of the body taste was performed with n=12 on the basis of the following criteria: a control (obtained with adding distilled water only and without adding the sample) was defined as 0, and by using the control as a standard, the following were defined: weak: −2 points; slightly weak: −1 point; slightly strong: 1 point, and strong: 2 points. A higher score than 0 means that the sample has a body taste-improving effect.
On the other hand, the sensory evaluation for the improvement of the bitterness was performed with n=12 on the basis of the following criteria: a control (obtained with adding distilled water only and without adding the sample) was defined as 0, and by using the control as a standard, the following were defined: weak: −2 points; slightly weak: −1 point; slightly strong: 1 point, and strong: 2 points. A lower score than 0 means that the sample improves the bitterness.

Where [1] appears, read: drinkable yogurt with APM 0.025 g/dl, sample 0.0001 g/dl.
Where [2] appears, read: drinkable yogurt with APM 0.025 g/dl, sample 0.001 g/dl.

As for `C[C@@H](NCCCc1cccc(C(F)(F)F)c1)c1cccc2ccccc12` [Cinacalcet, (R)—N-(3-(3-(trifluoromethyl)phenyl)propyl)-1-(1-naphthyl)ethylamine, reference compound], the “improvement of the body taste (conclusion in words)” value is given as “improves the body taste at almost the same concentration”. Under setting [1], this compound registered a Bitterness of −0.2 points and a Body taste of 0.5 points. Under setting [2], the Bitterness was −0.1 points and the Body taste is reported as 1.6 points.
Regarding [γGlu]-Val-Gly, the “improvement of the body taste (conclusion in words)” value was “improves the body taste at almost the same concentration”. Besides, under setting [1], the Bitterness is on record as −0.2 points and the Body taste stood at 0.5 points. Also, under setting [2], the Taste profile result was “Growth is present in middle taste. Sweet taste”, the Bitterness is on record as −0.5 points and the Body taste was found to be 1.4 points.
